Assay results: patent US6495525B1, “VLA-4 inhibitor: oMePUPA-V” (Biogen, Inc., priority 1998, dated 2002)

Experiments:
Oral availability = conditions: in vivo
α4β1 = target: T1, α4β1 (Homo sapiens, UniProt P05556+P13612); assay: LIBS induction on Jurkat cells with antibody 9EG7 (FACS); type: cell-based; conditions: 2 mM Mg+2 buffer, read-out: EC50 of LIBS epitope induction
T1 construct: endogenous in cells; host or cells: Jurkat (human T cell line)
Experimental: Jurkat cells (2×10^5/well) were preincubated at 37° C. for 20 minutes with TRIS-buffered saline containing 2 mM MgCl2 (Mg^+2-TBS) alone or with serial dilutions of test compounds. The samples were transferred to an ice bath and supplemented with LIBS antibody, 9EG7, at a final concentration of 10 μg/ml. The cells were washed twice with Mg^+2-TBS and resuspended in a 1:200 dilution of a FITC conjugated-goat anti-rat IgG in Mg^+2-TBS and incubated for 30 min at 4° C. The cells were washed twice and resuspended in Mg^+2-TBS. Mean fluorescence intensity (MFI) was determined by FACS analysis (Becton Dickinson FACScan). Results are expressed as MFI. Data were analyzed by Microsoft Excel v5.0 and Deltagraph v4.0 software.

VLA-4 = VLA-4 (Homo sapiens, UniProt P05556+P13612); assay: VCAM-Ig Direct Binding Assay (DBA) on Jurkat cells; parameters: endogenous in cells; host or cells: Jurkat (human T cell line)
From the text: A direct binding assay may also be employed to quantitate the inhibitory activity of the compounds of this invention. In this assay, a VCAM-IgG fusion protein containing the first two immunoglobulin domains of VCAM (D1D2) attached above the hinge region of an IgG1 molecule (“VCAM 2D-IgG”), is conjugated to a marker enzyme, such as alkaline phosphatase (“AP”). The synthesis of this VCAM-IgG fusion is described in PCT publication WO 90/13300, the disclosure of which is herein incorporated by reference. The conjugation of that fusion to a marker enzyme is achieved by cross-linking methods well-known in the art.
The VCAM-IgG enzyme conjugate is then placed in the wells of a multi-well filtration plate, such as that contained in the Millipore Multiscreen Assay System (Millipore Corp., Bedford, Ma.). Varying concentrations of the test inhibitory compound are then added to the wells followed by addition of VLA-4-expressing cells. […]
Following incubation, the wells are vacuum drained, leaving behind the cells and any bound VCAM. Quantitation of bound VCAM is determined by adding an appropriate colorimetric substrate for the enzyme conjugated to VCAM-IgG and determining the amount of reaction product. […]
VCAM-Ig was constructed and purified as published (Jakubowski, A. et al. Cell Adhesion and Communication 3:131-142, 1995). […] Binding to VLA-4 was assessed on the human T cell line, Jurkat (α4β1). […]

Chain of VLA-4 (P13612 34-1032): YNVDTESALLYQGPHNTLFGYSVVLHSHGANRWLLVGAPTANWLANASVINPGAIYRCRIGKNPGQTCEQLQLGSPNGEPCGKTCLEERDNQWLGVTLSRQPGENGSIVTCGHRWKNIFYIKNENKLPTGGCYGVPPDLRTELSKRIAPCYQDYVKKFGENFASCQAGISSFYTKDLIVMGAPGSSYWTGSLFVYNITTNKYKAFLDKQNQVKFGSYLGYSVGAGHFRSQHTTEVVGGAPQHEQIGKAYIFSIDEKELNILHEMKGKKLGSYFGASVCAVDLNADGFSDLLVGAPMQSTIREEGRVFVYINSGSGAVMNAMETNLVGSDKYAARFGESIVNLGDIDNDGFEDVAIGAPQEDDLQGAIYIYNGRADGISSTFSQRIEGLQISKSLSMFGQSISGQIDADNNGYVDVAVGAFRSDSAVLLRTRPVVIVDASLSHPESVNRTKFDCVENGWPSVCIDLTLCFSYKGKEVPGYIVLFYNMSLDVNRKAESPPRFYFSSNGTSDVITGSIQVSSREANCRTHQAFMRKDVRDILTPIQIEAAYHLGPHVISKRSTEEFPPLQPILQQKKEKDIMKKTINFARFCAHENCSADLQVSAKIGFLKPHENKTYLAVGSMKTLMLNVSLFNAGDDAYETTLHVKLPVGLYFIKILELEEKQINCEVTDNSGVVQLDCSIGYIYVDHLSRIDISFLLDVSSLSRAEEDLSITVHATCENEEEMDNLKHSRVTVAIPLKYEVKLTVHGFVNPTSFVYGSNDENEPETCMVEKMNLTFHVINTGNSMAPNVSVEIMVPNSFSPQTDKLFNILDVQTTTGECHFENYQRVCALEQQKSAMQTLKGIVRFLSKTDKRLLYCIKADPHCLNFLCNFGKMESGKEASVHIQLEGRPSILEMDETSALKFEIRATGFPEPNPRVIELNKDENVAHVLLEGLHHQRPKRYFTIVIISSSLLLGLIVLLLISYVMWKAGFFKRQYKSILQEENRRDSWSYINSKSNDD
Chain of VLA-4 (P05556 21-798): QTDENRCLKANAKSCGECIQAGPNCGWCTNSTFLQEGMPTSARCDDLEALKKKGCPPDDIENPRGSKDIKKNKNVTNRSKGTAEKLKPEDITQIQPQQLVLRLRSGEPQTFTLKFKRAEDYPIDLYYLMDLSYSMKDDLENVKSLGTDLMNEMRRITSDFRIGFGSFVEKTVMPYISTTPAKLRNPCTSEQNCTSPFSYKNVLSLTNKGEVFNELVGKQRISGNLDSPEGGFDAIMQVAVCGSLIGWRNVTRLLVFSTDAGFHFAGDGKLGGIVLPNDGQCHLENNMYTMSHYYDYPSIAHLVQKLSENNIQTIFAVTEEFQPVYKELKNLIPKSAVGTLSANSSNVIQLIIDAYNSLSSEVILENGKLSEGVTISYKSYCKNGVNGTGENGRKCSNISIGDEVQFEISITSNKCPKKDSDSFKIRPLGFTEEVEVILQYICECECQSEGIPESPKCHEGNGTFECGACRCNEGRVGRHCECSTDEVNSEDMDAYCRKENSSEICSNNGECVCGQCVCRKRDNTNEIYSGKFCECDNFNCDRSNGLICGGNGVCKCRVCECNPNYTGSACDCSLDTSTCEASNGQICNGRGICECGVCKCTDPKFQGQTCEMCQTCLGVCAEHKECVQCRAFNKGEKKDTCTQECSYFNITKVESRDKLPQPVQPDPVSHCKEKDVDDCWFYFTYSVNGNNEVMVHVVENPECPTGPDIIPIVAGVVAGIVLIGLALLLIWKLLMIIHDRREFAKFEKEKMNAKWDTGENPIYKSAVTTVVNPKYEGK
T1 sequence (P13612 34-1032): as the sequence (P13612 34-1032) above
T1 sequence (P05556 21-798): as the sequence (P05556 21-798) above

**Q.** Which results are given for `Cc1ccccc1NC(=O)Nc1ccc(CC(=O)N2CCC[C@H]2C(=O)N[C@H](C)CC(=O)O)cc1` [oMePUPA-V]?
**A.** Oral availability (Oral availability): <1%; EC50 (α4β1): ~0.02 µM; IC50 (VLA-4; 1 mM MnCl2, read-out: IC50 ± SD, Jurkat cell VCAM-Ig Binding): 0.008 ± 0.001 µM; specificity for VLA-4 (VLA-4; versus α4β7, VLA-5 and gpIIbIIIa): > 10,000 fold
